The values that follow come from US20250296971A1, “GASTRIC INHIBITORY PEPTIDE RECEPTOR LIGANDS” (priority 2021, published 2025).

Molecules are shown by their SMILES. Read-outs that look alike come from different tables or passages of the source. *1 amine or outer side, *2 acyl side, *3 side chain or, on linkers, in order; H or OH if unused. Where a SMILES comes first, the peptide text is derived from it. Bridges are numbered along the chain shown (N, C = ends). Side-chain parts run from the residue outwards. [ ]: non-standard residue; d: D form. The star is where a group is joined. DOTA(Lu) = O=C1CN2CCN3CCN(CC(=O)*)CCN(CC2)CC(=O)[O][Lu]([O]1)[O]C(=O)C3; NH(1-deoxy-D-glucityl) = OC[C@@H](O)[C@@H](O)[C@H](O)[C@@H](O)CN*; Pro(trans-4-NH2) = O=C([C@@H]1C[C@@H](N[*:3])CN1[*:1])[*:2]; DOTA = O=C(O)CN1CCN(CC(=O)O)CCN(CC(=O)*)CCN(CC(=O)O)CC1; Trp(5-Cl) = N[C@@H](Cc1c[nH]c2ccc(Cl)cc12)C(=O)O; Pyridine(2,6-diCH2) = c1cc(C[*:1])nc(C[*:2])c1; Pro(4R-NH2) = N[C@H]1CN[C@H](C(=O)O)C1; Glutaryl = O=C(CCCC(=O)[*:2])[*:1]; Hyp = O=C(O)[C@@H]1C[C@@H](O)CN1; X1 = O=C(CN1CCC(N[*:1])CC1)[*:2]; Suc = O=C(CCC(=O)[*:2])[*:1]; hSer = N[C@@H](CCO)C(=O)O; Api = NC1(C(=O)O)CCNCC1; Thp = NC1(C(=O)O)CCOCC1

In assay [1] the target is T1, human GIP receptor (bioGIPR) (Homo sapiens, UniProt P48546).
T1 construct: Biotinylate extracellular of the human GIP receptor (bioGIPR, Proteros biostructures GmbH, lot #02/2b); purchased Proteros biostructures GmbH lot #02/2b
T1 sequence (P48546 22-138 limits assumed): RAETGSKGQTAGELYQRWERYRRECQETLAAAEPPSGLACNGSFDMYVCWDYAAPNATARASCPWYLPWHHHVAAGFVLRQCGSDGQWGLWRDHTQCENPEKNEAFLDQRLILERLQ
Nature of the assay: Surface plasmon resonance (SPR) based binding assay. The note with it: for t1/2 Category: SPR dissociation half-life. The procedure:
Surface plasmon resonance (SPR) studies were performed using a Biacore™ T200 SPR system. Briefly, polarized light is directed towards a gold-labeled sensor surface, and minimum intensity reflected light is detected. The angle of reflected light changes as molecules bind and dissociate.
Biotinylate extracellular of the human GIP receptor (bioGIPR, Proteros biostructures GmbH, lot #02/2b) was captured on a biotin capture chip (Biotin CAPture Kit, Series S, GE Healthcare, Cat #28-9202-34). bioGIPR was diluted in Running Buffer (HBST from Xantec Analytics; […], 0.05% Tween20, 0.1% DMSO) to a final concentration 100 nM and than flushed over the Fc-capture chip to immobilized ˜3500 RUs.
Stock solutions of test compounds were prepared by dissolving each compound in DMSO. DMSO stock solution were diluted 1:1000 in Running Buffer without DMSO. Further sequential dilutions were made with Running Buffer containing 0.1% DMSO. SPR binding analyses were performed in Single Cycle Kinetic (SCK) mode at 25° C. Flow cell without immobilized bioGIPR served as reference flowcell. After each SCK run, bioGIRP and the Biotin Capture Reagent was removed with Regeneration Solution (6 M Guanidium, 0.75 M NaOH).
In between every three SCK measurements, a blank run with Running Buffer instead of test compound was included to correct for baseline drifts (double blanking method).
For each test compound, SPR raw data in the form of resonance units (RU) were plotted as sensorgrams using the Biacore™ T200 control software. The signal from the blank sensorgram was subtracted from that of the test compound sensorgram (blank corrected). The blank corrected sensorgram was corrected for baseline drift by subtracting the sensorgram of a SCK run without the test compound (running buffer only). The association rate (kon), dissociation rate (koff), dissociation constant (KD), and t1/2 were calculated from blank corrected SPR data using the 1:1 Langmuir binding model from the Biacore™ T200 evaluation software. Raw data and fit results were imported as text files in IDBS. The pKD value (negative decadic logarithm of dissociation constant) was calculated in the IDBS excel template.
(SPR reads the build-up and loss of mass on a sensor chip optically.)

Assay [2] addresses T2, GIPR (CHO-K1-hGIPR cells) (Homo sapiens, UniProt P48546).
T2 construct: host or cells: CHO-K1
T2 sequence (P48546 22-466): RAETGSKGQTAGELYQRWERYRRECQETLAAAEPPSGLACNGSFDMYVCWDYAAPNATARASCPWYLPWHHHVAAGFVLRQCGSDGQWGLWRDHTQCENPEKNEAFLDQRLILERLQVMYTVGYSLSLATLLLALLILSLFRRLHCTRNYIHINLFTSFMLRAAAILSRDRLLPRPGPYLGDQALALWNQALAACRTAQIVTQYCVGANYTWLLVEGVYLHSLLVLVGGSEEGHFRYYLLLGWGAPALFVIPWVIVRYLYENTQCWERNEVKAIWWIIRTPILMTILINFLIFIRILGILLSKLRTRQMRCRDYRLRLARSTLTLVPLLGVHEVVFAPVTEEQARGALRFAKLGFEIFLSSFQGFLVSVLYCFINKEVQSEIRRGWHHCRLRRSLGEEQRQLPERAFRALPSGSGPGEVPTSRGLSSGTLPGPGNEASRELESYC
Nature of the assay: FACS binding assay. To be noted: competition with 20 nM GIP-057, 4° C., 1 hour. The method in brief: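 Peptide binding read by flow cytometry as APC-channel median fluorescence, fitted with a four-parameter logistic to yield EC50 or IC50. Cells were hGIPR-transfected CHO-K1 in PBS with 1% FCS, detected with 1 μg/mL APC-streptavidin, 30 min on ice.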
In general terms: In flow cytometry, cells or beads pass a laser one at a time.

[3] abbreviates: Single Cycle Kinetic mode, 25° C.
Where [4] appears, read: SPR, Single Cycle Kinetic mode, 25° C., 1:1 Langmuir binding model, read-out: pKD Category (converted).
The mark [5] stands for this setting: read-out: pIC50 Category (converted).

Consider `CC[C@H](C)[C@@H]1NC(=O)[C@H](CC(C)C)NC(=O)C2(CCOCC2)NC(=O)[C@@H](NC(=O)[C@@H](CC(C)C)NC(=O)[C@H](CCC(=O)O)NC(=O)[C@@H]2C[C@@H](O)CN2C(=O)[C@H](Cc2c[nH]c3ccc(Cl)cc23)NC(=O)[C@H](Cc2c[nH]c3ccccc23)NC(=O)CCC(=O)O)CSCc2cccc(n2)CSC[C@@H](C(=O)NC2CCN(CC(=O)N[C@H](CCC(=O)NC[C@H](O)[C@@H](O)[C@H](O)[C@H](O)CO)C(=O)N[C@@H](CCCCNC(=O)CN3CCN(CC(=O)O)CCN(CC(=O)O)CCN(CC(=O)O)CC3)C(N)=O)CC2)NC1=O` [GIP-021, HO-Succinyl-Trp-5Clw-Hyp-Glu-leu-[Cys(2Lut)-Thp-Leu-Ile-Cys]-APAc-glu(AGLU)-Lys(DOTA)-NH2] (Suc-W[Trp(5-Cl)][Hyp]E[dL]C[Thp]LIC[X1][dE](NH(1-deoxy-D-glucityl))K(DOTA)-NH2; linker 6-10 via Pyridine(2,6-diCH2)), for which the “t1/2 Category” value in assay [1] (setting [3]) is “A (t1/2 values>15 min)”. Moreover, in assay [1] (setting [4]), the Kd was below 1 nM. Besides, the IC50 in assay [2] (setting [5]) was below 10 nM.
Regarding `CC[C@H](C)[C@@H]1NC(=O)[C@H](CC(C)C)NC(=O)C2(CCNCC2)NC(=O)[C@@H](NC(=O)[C@@H](CC(C)C)NC(=O)[C@H](CCC(=O)O)NC(=O)[C@@H]2C[C@@H](N)CN2C(=O)[C@H](Cc2c[nH]c3ccc(Cl)cc23)NC(=O)[C@H](Cc2c[nH]c3ccccc23)NC(=O)CCC(=O)O)CSCc2cccc(n2)CSC[C@@H](C(=O)NC2CCN(CC(=O)N[C@H](CCC(=O)NC[C@H](O)[C@@H](O)[C@H](O)[C@H](O)CO)C(=O)N[C@@H](CCCCNC(=O)CN3CCN(CC(=O)O)CCN(CC(=O)O)CCN(CC(=O)O)CC3)C(N)=O)CC2)NC1=O` [GIP-022, HO-Succinyl-Trp-5Clw-Tap-Glu-leu-[Cys(2Lut)-Apc-Leu-Ile-Cys]-APAc-glu(AGLU)-Lys(DOTA)-NH2] (Suc-W[Trp(5-Cl)][Pro(4R-NH2)]E[dL]C[Api]LIC[X1][dE](NH(1-deoxy-D-glucityl))K(DOTA)-NH2; linker 6-10 via Pyridine(2,6-diCH2)), the “t1/2 Category” value in assay [1] (setting [3]) is given as “A (t1/2 values>15 min)”. Also, the Kd in assay [1] (setting [4]) is below 1 nM. In addition, the IC50 in assay [2] (setting [5]) was below 10 nM.
The corresponding values for `CC[C@H](C)[C@@H]1NC(=O)[C@H](CC(C)C)NC(=O)C2(CCN(C(=O)CN3CCN(CC(=O)O)CCN(CC(=O)O)CCN(CC(=O)O)CC3)CC2)NC(=O)[C@@H](NC(=O)[C@@H](CC(C)C)NC(=O)[C@H](CCO)NC(=O)[C@@H]2C[C@@H](NC(=O)CCCC(=O)NC[C@H](O)[C@@H](O)[C@H](O)[C@H](O)CO)CN2C(=O)[C@H](Cc2c[nH]c3ccc(Cl)cc23)NC(=O)[C@H](Cc2c[nH]c3ccccc23)NC(=O)[C@H](CO)NC(=O)CN2CCC(NC(=O)CCCC(=O)NC[C@H](O)[C@@H](O)[C@H](O)[C@H](O)CO)CC2)CSCc2cccc(n2)CSC[C@@H](C(=O)NC2CCN(CC(=O)N[C@H](CCC(=O)NC[C@H](O)[C@@H](O)[C@H](O)[C@H](O)CO)C(N)=O)CC2)NC1=O` [GIP-046, AGLU-Glutar-APAc-Ser-Trp-5Clw-Tap(AGLU-Glutar)-Hse-leu-[Cys(2Lut)-Apc(DOTA)-Leu-Ile-Cys]-APAc-glu(AGLU)-NH2] ({NH(1-deoxy-D-glucityl)-Glutaryl}-[X1]SW[Trp(5-Cl)][Pro(trans-4-NH2)]([Glutaryl-NH(1-deoxy-D-glucityl)])[hSer][dL]C[Api](DOTA)LIC[X1][dE](NH(1-deoxy-D-glucityl))-NH2; linker 8-12 via Pyridine(2,6-diCH2)) are “D (t1/2<2.0 min)”, 1 to 7.94 nM and 10 to 79.4 nM.
The corresponding values for `CC[C@H](C)[C@@H]1NC(=O)[C@H](CC(C)C)NC(=O)C2(CCN(C(=O)CN3CCN(CC(=O)O)CCN(CC(=O)O)CCN(CC(=O)O)CC3)CC2)NC(=O)[C@@H](NC(=O)[C@@H](CC(C)C)NC(=O)[C@H](CCO)NC(=O)[C@@H]2C[C@@H](N)CN2C(=O)[C@H](Cc2c[nH]c3ccc(Cl)cc23)NC(=O)[C@H](Cc2c[nH]c3ccccc23)NC(=O)[C@H](CO)NC(=O)CN2CCC(NC(=O)CCCC(=O)NC[C@H](O)[C@@H](O)[C@H](O)[C@H](O)CO)CC2)CSCc2cccc(n2)CSC[C@@H](C(=O)NC2CCN(CC(=O)N[C@H](CCC(=O)NC[C@H](O)[C@@H](O)[C@H](O)[C@H](O)CO)C(N)=O)CC2)NC1=O` [GIP-048, AGLU-Glutar-APAc-Ser-Trp-5Clw-Tap-Hse-leu-[Cys(2Lut)-Apc(DOTA)-Leu-Ile-Cys]-APAc-glu(AGLU)-NH2] ({NH(1-deoxy-D-glucityl)-Glutaryl}-[X1]SW[Trp(5-Cl)][Pro(4R-NH2)][hSer][dL]C[Api](DOTA)LIC[X1][dE](NH(1-deoxy-D-glucityl))-NH2; linker 8-12 via Pyridine(2,6-diCH2)) are “D (t1/2<2.0 min)”, 1 to 7.94 nM and 10 to 79.4 nM.
For `CC[C@H](C)[C@@H]1NC(=O)[C@H](CC(C)C)NC(=O)C2(CCN(C(=O)CN3CCN(CC(=O)O)CCN(CC(=O)O)CCN(CC(=O)O)CC3)CC2)NC(=O)[C@@H](NC(=O)[C@@H](CC(C)C)NC(=O)[C@H](CCC(=O)O)NC(=O)[C@@H]2C[C@@H](O)CN2C(=O)[C@H](Cc2c[nH]c3ccc(Cl)cc23)NC(=O)[C@H](Cc2c[nH]c3ccccc23)NC(=O)[C@H](CCO)NC(=O)CN2CCC(NC(=O)CCCC(=O)NC[C@H](O)[C@@H](O)[C@H](O)[C@H](O)CO)CC2)CSCc2cccc(n2)CSC[C@@H](C(=O)NC2CCN(CC(=O)N[C@H](CCC(=O)NC[C@H](O)[C@@H](O)[C@H](O)[C@H](O)CO)C(N)=O)CC2)NC1=O` [GIP-049, AGLU-Glutar-APAc-Hse-Trp-5Clw-Hyp-Glu-leu-[Cys(2Lut)-Apc(DOTA)-Leu-Ile-Cys]-APAc-glu(AGLU)-NH2] ({NH(1-deoxy-D-glucityl)-Glutaryl}-[X1][hSer]W[Trp(5-Cl)][Hyp]E[dL]C[Api](DOTA)LIC[X1][dE](NH(1-deoxy-D-glucityl))-NH2; linker 8-12 via Pyridine(2,6-diCH2)), the “t1/2 Category” value in assay [1] (setting [3]) is given as “D (t1/2<2.0 min)”. Also, the Kd in assay [1] (setting [4]) was 1 to 7.94 nM. For the same compound, in assay [2] (setting [5]), the IC50 was 10 to 79.4 nM.
In assay [1], `CC[C@H](C)[C@@H]1NC(=O)[C@H](CC(C)C)NC(=O)C2(CCN(C(=O)CN3CCN4CCN5CCN(CC3)CC(=O)[O][Lu]([O]C(=O)C5)[O]C(=O)C4)CC2)NC(=O)[C@@H](NC(=O)[C@@H](CC(C)C)NC(=O)[C@H](CCC(=O)O)NC(=O)[C@@H]2C[C@@H](N)CN2C(=O)[C@H](Cc2c[nH]c3ccc(Cl)cc23)NC(=O)[C@H](Cc2c[nH]c3ccccc23)NC(=O)[C@H](CC(=O)O)NC(=O)CCCC(=O)NC[C@H](O)[C@@H](O)[C@H](O)[C@H](O)CO)CSCc2cccc(n2)CSC[C@@H](C(=O)NC2CCN(CC(=O)N[C@H](CCC(=O)NC[C@H](O)[C@@H](O)[C@H](O)[C@H](O)CO)C(N)=O)CC2)NC1=O` [GIP-066, Lutetium-Complex of AGLU-Glutar-Asp-Trp-5Clw-Hyp-Glu-leu-[Cys(2Lut)-Apc(DOTA)-Leu-Ile-Cys]-APAc-glu(AGLU)-NH2] ({NH(1-deoxy-D-glucityl)-Glutaryl}-DW[Trp(5-Cl)][Pro(4R-NH2)]E[dL]C[Api](DOTA(Lu))LIC[X1][dE](NH(1-deoxy-D-glucityl))-NH2; linker 7-11 via Pyridine(2,6-diCH2)) displayed a Kd below 1 nM. In assay [1] (setting [3]), the “t1/2 Category” value was “A (t1/2 values>15 min)”. The IC50 in assay [2] (pIC50 Category) is below 10 nM.
